The values below come from patent US20170050936A1, “CERTAIN CHEMICAL ENTITIES, COMPOSITIONS, AND METHODS” (NEUPHARMA, INC., priority 2013, published 2017).

The target in one assay is T1, EGFR (ErbB1) (Homo sapiens, UniProt P00533).
T1 construct: purchased Invitrogen
As to the kind of experiment: Z'-LYTE kinase inhibition assay, EGFR. The assay is classed as biochemical. Conditions: read-out: IC50 against EGFR. As for the experimental part: Inhibitory activities of compounds against BTK, EGFR and EGFR mutants (EGFR L858R, EGFR T790M, EGFR L858R/T790M), FGFR1, FGFR2, JAK2, JAK3 and KDR were measured by Invitrogen using Z'-LYTE® Method as briefly described in the following. Test Compounds are screened in 1% DMSO (final) in the well. For 10 point titrations, 3-fold serial dilutions are conducted from the starting concentration. All ATP Solutions are diluted to a 4× working concentration in Kinase Buffer (50 mM HEPES pH 7.5, 0.01% BRIJ-35, 10 mM MgCl2, 1 mM EGTA). Peptide/Kinase Mixtures are diluted to a 2× working concentration in the appropriate Kinase Buffers as described below. (i) Peptide/Kinase Mixtures for measurement of EGFR (ErbB1): The 2× EGFR (ErbB1)/[…] mixture is prepared in 50 mM HEPES pH 7.5, 0.01% BRIJ-35, 10 mM MgCl2, 4 mM MnCl2, 1 mM EGTA, 2 mM DTT. The final 10 μL Kinase Reaction consists of 1.1-5.25 ng EGFR (ErbB1) and 2 μM […] in 50 mM HEPES pH 7.5, 0.01% BRIJ-35, 10 mM MgCl2, 2 mM MnCl2, 1 mM EGTA, 1 mM DTT. After the 1 hour Kinase Reaction incubation, 5 μL of a 1:64 dilution of Development Reagent B is added. Reaction starts by 30-second shaking of mixture consisting of 2.5 μL 4× test compound, 5 μL 2× kinase reaction mixture and 2.5 μL 4× ATP Solution on Bar-coded Corning, low volume NBS, black 384-well plate (Corning Cat. #3676). Then the mixture is incubated for 60-minute at room temperature for the kinase reaction, followed by addition of 5 μL of a 1:1024 dilution of development reagent A and 30-second plate shake. The mixture is then incubated for another 60-minute at room temperature for development reaction. Finally fluorescence is read by plate reader. To determine IC50 of a compound against EGFR, EGFR mutant and other kinases, a series of concentrations of the compound were tested for the inhibition.

The next assay deals with T2, FGFR1 (Homo sapiens, UniProt P11362).
T2 construct: purchased Invitrogen
As to the kind of experiment: Z'-LYTE kinase inhibition assay, FGFR1. The assay is classed as biochemical. The conditions noted are these: read-out: IC50 against FGFR1. As for the experimental part: (§1) Inhibitory activities of compounds against BTK, EGFR and EGFR mutants (EGFR L858R, EGFR T790M, EGFR L858R/T790M), FGFR1, FGFR2, JAK2, JAK3 and KDR were measured by Invitrogen using Z′-LYTE® Method as briefly described in the following.
(§2) Test Compounds are screened in 1% DMSO (final) in the well. For 10 point titrations, 3-fold serial dilutions are conducted from the starting concentration. All ATP Solutions are diluted to a 4× working concentration in Kinase Buffer (50 mM HEPES pH 7.5, 0.01% BRIJ-35, 10 mM MgCl2, 1 mM EGTA). Peptide/Kinase Mixtures are diluted to a 2× working concentration in the appropriate Kinase Buffers as described below.
(v) Peptide/Kinase Mixtures for measurement of FGFR1:
The 2× FGFR1/Tyr 04 mixture is prepared in 50 mM HEPES pH 7.5, 0.01% BRIJ-35, 10 mM MgCl2, 4 mM MnCl2, 1 mM EGTA, 2 mM DTT. The final 10 μL Kinase Reaction consists of 0.41-3.5 ng FGFR1 and 2 μM Tyr 04 in 50 mM HEPES pH 7.5, 0.01% BRIJ-35, 10 mM MgCl2, 2 mM MnCl2, 1 mM EGTA, 1 mM DTT. After the 1 hour Kinase Reaction incubation, 5 μL of a 1:64 dilution of Development Reagent B is added.
(§3) Reaction starts by 30-second shaking of mixture consisting of 2.5 μL 4× test compound, 5 μL 2× kinase reaction mixture and 2.5 μL 4× ATP Solution on Bar-coded Corning, low volume NBS, black 384-well plate (Corning Cat. #3676). Then the mixture is incubated for 60-minute at room temperature for the kinase reaction, followed by addition of 5 μL of a 1:1024 dilution of development reagent A and 30-second plate shake. The mixture is then incubated for another 60-minute at room temperature for development reaction. Finally fluorescence is read by plate reader.
(§4) To determine IC50 of a compound against EGFR, EGFR mutant and other kinases, a series of concentrations of the compound were tested for the inhibition. […] The scale utilized in Table 4 is as follows: +++ less than 100 nM, ++100-500 nM and + greater than 500 nM.

The target of a further assay is T3, KDR (VEGFR2) (Homo sapiens, UniProt P35968).
T3 construct: purchased Invitrogen
The assay can be described thus: Z'-LYTE kinase inhibition assay, KDR. Conditions: read-out: IC50 against KDR. It counts as biochemical. The protocol:
as §1, §2
(v) Peptide/Kinase Mixtures for measurement of KDR (VEGFR2):
The 2× KDR (VEGFR2)/Tyr 01 mixture is prepared in 50 mM HEPES pH 7.5, 0.01% BRIJ-35, 10 mM MgCl2, 1 mM EGTA. The final 10 μL Kinase Reaction consists of 0.5-11.7 ng KDR (VEGFR2) and 2 μM Tyr Olin 50 mM HEPES pH 7.5, 0.01% BRIJ-35, 10 mM MgCl2, 1 mM EGTA. After the 1 hour Kinase Reaction incubation, 5 μL of a 1:256 dilution of Development Reagent B is added.
as §3, §4

Another assay has as its target T4, FGFR2 (Homo sapiens, UniProt P21802).
T4 construct: purchased Invitrogen
The assay can be described thus: Z'-LYTE kinase inhibition assay, FGFR2. It counts as biochemical. The conditions noted are these: read-out: IC50 against FGFR2. As for the experimental part: as §1, §2
(v) Peptide/Kinase Mixtures for measurement of FGFR2:
The 2× FGFR2/Tyr 04 mixture is prepared in 50 mM HEPES pH 7.5, 0.01% BRIJ-35, 10 mM MgCl2, 4 mM MnCl2, 1 mM EGTA, 2 mM DTT. The final 10 μL Kinase Reaction consists of 0.19-2.36 ng FGFR2 and 2 μM Tyr 04 in 50 mM HEPES pH 7.5, 0.01% BRIJ-35, 10 mM MgCl2, 2 mM MnCl2, 1 mM EGTA, 1 mM DTT. After the 1 hour Kinase Reaction incubation, 5 μL of a 1:64 dilution of Development Reagent B is added.
as §3, §4

In the next assay the test system is H1299 cells. As to the kind of experiment: Inhibition of cancer cell growth, MTT assay, H1299. Conditions: Homo sapiens, NCI-H1299, 72 h, read-out: IC50 in H1299 cells. A general note: Tetrazolium assays rely on reduction of a dye to a coloured formazan, in cell work by metabolically active cells.

Molecules are shown by their SMILES.

T3 sequence (P35968 20-1356): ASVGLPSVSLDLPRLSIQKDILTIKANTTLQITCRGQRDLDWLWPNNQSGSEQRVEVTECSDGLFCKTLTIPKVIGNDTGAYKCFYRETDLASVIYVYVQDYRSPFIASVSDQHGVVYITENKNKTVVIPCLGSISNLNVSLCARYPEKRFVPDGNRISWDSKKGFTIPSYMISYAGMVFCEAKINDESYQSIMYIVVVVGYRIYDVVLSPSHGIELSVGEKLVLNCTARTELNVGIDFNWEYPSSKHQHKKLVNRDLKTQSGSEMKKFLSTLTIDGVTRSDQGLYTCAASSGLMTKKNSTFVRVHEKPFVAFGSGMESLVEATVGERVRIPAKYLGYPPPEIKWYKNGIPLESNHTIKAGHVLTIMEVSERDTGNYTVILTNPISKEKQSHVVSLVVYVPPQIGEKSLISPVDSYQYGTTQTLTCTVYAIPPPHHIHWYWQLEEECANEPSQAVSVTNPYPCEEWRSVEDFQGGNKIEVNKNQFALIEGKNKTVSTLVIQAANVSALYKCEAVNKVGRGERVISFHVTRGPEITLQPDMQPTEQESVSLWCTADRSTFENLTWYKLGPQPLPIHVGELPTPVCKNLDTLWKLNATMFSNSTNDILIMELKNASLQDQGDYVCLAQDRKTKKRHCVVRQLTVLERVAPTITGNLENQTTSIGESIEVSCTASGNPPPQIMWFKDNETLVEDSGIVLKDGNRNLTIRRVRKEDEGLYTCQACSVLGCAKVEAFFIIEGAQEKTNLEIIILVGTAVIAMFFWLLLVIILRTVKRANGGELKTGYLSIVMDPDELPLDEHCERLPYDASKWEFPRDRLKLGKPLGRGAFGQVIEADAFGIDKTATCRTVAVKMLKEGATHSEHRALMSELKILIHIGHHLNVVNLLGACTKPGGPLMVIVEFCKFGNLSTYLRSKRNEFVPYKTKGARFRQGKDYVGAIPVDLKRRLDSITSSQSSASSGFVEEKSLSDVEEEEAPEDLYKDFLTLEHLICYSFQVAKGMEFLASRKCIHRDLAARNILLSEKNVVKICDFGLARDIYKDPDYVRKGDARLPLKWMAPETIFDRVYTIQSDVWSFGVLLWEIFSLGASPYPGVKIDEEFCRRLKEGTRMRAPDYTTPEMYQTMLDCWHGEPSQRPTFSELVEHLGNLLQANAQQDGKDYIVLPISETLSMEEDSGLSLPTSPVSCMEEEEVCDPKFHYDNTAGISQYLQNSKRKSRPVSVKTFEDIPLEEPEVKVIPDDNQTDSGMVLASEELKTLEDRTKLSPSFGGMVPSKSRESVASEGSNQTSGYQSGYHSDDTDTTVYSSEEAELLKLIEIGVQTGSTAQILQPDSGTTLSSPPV
T1 sequence (P00533 25-1210): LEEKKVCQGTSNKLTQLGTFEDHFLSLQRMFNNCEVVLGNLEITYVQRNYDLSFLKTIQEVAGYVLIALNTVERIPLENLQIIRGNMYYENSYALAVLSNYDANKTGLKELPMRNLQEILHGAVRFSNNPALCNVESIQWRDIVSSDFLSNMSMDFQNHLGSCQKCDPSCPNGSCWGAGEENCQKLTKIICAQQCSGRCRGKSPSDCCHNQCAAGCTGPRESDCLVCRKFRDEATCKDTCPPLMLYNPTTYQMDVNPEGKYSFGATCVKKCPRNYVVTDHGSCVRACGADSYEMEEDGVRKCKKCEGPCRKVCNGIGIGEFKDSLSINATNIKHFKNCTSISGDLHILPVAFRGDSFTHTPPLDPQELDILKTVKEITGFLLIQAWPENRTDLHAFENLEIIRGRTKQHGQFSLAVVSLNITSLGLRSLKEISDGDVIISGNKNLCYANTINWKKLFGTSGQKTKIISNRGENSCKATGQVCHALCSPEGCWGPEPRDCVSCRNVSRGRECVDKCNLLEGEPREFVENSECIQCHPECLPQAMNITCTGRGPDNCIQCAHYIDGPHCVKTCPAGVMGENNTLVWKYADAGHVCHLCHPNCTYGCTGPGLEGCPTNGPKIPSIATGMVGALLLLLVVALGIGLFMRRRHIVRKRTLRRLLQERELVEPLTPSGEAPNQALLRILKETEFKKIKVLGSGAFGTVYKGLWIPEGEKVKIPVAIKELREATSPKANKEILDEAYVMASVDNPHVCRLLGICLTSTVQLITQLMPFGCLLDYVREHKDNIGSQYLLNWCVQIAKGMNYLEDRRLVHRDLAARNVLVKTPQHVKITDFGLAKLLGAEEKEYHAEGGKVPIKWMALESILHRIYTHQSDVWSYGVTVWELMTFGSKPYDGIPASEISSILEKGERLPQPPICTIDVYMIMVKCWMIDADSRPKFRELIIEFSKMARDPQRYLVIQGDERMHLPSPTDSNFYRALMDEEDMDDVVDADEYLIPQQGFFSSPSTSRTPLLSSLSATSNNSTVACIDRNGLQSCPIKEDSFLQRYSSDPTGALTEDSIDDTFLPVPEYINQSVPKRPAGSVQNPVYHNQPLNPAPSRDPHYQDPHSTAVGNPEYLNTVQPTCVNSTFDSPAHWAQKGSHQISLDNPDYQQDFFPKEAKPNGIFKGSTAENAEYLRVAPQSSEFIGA
T4 sequence (P21802 22-821): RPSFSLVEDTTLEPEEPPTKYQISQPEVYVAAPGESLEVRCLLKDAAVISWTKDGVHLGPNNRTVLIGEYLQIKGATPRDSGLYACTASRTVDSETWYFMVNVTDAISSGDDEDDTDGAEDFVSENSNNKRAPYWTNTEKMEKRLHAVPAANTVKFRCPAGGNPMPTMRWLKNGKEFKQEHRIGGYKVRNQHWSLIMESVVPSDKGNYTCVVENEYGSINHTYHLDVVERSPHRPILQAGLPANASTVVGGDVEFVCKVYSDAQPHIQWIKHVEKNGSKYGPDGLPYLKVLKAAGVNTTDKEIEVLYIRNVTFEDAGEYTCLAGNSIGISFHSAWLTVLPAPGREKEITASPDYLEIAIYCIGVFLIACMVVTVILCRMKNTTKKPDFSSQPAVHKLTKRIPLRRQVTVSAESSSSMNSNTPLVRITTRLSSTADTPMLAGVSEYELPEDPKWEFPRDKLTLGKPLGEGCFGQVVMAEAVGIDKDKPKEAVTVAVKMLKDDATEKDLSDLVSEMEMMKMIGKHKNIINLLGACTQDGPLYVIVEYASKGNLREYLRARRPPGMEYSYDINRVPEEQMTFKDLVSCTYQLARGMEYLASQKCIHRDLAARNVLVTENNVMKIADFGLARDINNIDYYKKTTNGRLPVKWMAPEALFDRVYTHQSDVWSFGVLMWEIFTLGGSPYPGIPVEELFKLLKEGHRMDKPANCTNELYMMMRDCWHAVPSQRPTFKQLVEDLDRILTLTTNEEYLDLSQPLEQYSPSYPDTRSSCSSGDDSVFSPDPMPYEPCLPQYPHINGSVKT
T2 sequence (P11362 22-822): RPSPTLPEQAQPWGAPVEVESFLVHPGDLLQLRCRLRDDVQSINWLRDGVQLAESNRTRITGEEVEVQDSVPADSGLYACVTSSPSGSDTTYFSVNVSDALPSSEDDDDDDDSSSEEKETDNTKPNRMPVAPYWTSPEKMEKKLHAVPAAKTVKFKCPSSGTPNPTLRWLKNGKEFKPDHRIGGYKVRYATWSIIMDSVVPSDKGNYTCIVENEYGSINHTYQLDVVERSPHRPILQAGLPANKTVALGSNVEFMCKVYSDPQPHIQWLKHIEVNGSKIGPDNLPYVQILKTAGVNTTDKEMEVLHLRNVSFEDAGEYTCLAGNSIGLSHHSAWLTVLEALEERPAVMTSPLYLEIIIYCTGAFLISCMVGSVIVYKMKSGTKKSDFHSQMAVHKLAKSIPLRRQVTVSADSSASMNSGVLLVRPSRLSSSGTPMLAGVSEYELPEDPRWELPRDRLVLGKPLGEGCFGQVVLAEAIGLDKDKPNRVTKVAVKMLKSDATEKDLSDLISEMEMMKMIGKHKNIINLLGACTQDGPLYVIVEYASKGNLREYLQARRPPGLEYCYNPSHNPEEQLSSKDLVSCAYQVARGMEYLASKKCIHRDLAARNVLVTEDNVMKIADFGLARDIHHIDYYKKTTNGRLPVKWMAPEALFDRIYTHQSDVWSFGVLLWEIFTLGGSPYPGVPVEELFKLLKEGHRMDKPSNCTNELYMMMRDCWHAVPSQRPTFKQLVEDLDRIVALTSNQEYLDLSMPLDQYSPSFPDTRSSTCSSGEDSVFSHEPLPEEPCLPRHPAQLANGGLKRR
Experimental for H1299 cells: Inhibition of cell growth by compounds was measured using MTT assay (Mosmann, T., Journal of Immunological Methods, 1983, 65, 55-63). Tumor cell lines were purchased from ATCC (American Type Culture Collection, Manassas, Va.). All cell lines were maintained in RPMI 1640 (Hyclone) supplemented with 10% fetal bovine serum (FBS, Hyclone), glutamine (2 mM, Hyclone), and antibiotics (penicillin 100 U/mL and streptomycin 50 μg/mL) at 37° C. in a humidified atmosphere of 5% CO2 in air. Taxol (as a positive control, Sigma) and compounds were dissolved in DMSO (Sigma), and the final concentration of DMSO in the medium was 1%. Tumor cells were plated in 96-well plates at densities of about 4000 cells/well of a 96-well plate and allowed to adhere/grow for 24 h. They were then treated with various concentrations of drug for 72 h. […] The number of cells remaining after 72 h was compared to the number of viable cells at the time of compound addition by measuring the absorbance at 570 nm, allowing for the calculation of growth inhibition.
All concentrations of compounds were tested in triplicate and controls were averaged over 4 wells. IC50 was calculated by plotting the concentration of compound vs the percentage of inhibition in treated wells using GraphPad Prism 5. […]

A word on the IC50: it is the concentration needed to halve the response being measured. In the case of `C=CC(=O)Nc1cccc(-c2cccc3cnc(Nc4ccc(N5CCN(C(C)=O)CC5)cc4)nc23)c1` [Example C032, N-(3-(2-((4-(4-acetylpiperazin-1-yl)phenyl)amino)quinazolin-8-yl)phenyl)acrylamide], at EGFR (ErbB1), the IC50 is 100 to 500 nM.

On to `C=CC(=O)Nc1cccc(-c2cccc3cnc(Nc4ccc(N5CCN(C)CC5)cc4F)nc23)c1` [Example C044, N-(3-(2-((2-fluoro-4-(4-methylpiperazin-1-yl)phenyl)amino)quinazolin-8-yl)phenyl)acrylamide], for which the IC50 at FGFR1 and at KDR (VEGFR2) was 100 to 500 nM throughout.

For `C=CC(=O)Nc1cccc(-c2cccc3cnc(Nc4ccc(N5CCN(CCO)CC5)cc4)nc23)c1` [Example C059, N-(3-(2-((4-(4-(2-hydroxyethyl)piperazin-1-yl)phenyl)amino)quinazolin-8-yl)phenyl)acrylamide], at FGFR2, the IC50 was 100 to 500 nM.

In the case of `C=CC(=O)Nc1cccc(-c2cccc3cnc(Nc4ccc(OC5CCN(C)CC5F)cc4)nc23)c1` (centres unmarked) [Example C079, N-(3-(2-((4-((3-fluoro-1-methylpiperidin-4-yl)oxy)phenyl)amino)quinazolin-8-yl)phenyl)acrylamide], the half-inhibitory concentration (IC50) at EGFR (ErbB1) fell in the range of 100 to 500 nM.

Regarding `C=CC(=O)Nc1cccc(-c2cccc3cnc(Nc4ccc(N5CCN(C)CC5)c(C(N)=O)c4)nc23)c1` [Example C085, 5-((8-(3-acrylamidophenyl)quinazolin-2-yl)amino)-2-(4-methylpiperazin-1-yl)benzamide], the IC50 at EGFR (ErbB1) lay in the range of 100 to 500 nM.

Take `C=CC(=O)Nc1cccc(-c2cccc3cnc(Nc4ccc(OCCO)cc4)nc23)c1` [Example C108, N-(3-(2-((4-(2-hydroxyethoxy)phenyl)amino)quinazolin-8-yl)phenyl)acrylamide]: the IC50 on EGFR (ErbB1) fell in the range of 100 to 500 nM.

With `C=CC(=O)Nc1cccc(-c2cccc3cnc(Nc4cc(F)c(N5CCN(C)CC5)c(F)c4)nc23)c1` [Example C146, N-(3-(2-((3,5-difluoro-4-(4-methylpiperazin-1-yl)phenyl)amino)quinazolin-8-yl)phenyl)acrylamide], in the assay on H1299 cells, the IC50 is less than 100 nM.

Consider `C=CC(=O)Nc1cccc(-c2cccc3cnc(Nc4ccc(N5CCN(CCO)CC5)cc4F)nc23)c1` [Example C147, N-(3-(2-((2-fluoro-4-(4-(2-hydroxyethyl)piperazin-1-yl)phenyl)amino)quinazolin-8-yl)phenyl)acrylamide], for which the IC50 at FGFR1, on FGFR2 and at KDR (VEGFR2) was 100 to 500 nM in each case.

As to `C=CC(=O)Nc1cccc(-c2cccc3cnc(Nc4ccc(N5CCN(CCO)CC5)c(F)c4F)nc23)c1` [Example C151, N-(3-(2-((2,3-difluoro-4-(4-(2-hydroxyethyl)piperazin-1-yl)phenyl)amino)quinazolin-8-yl)phenyl)acrylamide], the half-inhibitory concentration (IC50) at FGFR1, on FGFR2 and at KDR (VEGFR2) was 100 to 500 nM in each case.
